According to patent US7563864B2, “Prolyl endopeptidase mediated destruction of T cell epitopes in whole gluten” (Celiac Sprue Research Foundation, priority 2004, dated 2009):

Experiments:
Type in all cases: cell-based, human
Set-up in all cases: key: −: no response; Stimulatory index (SI; T + APC + TG2-treated peptide divided by T + APC) of 3-10; ++: SI above 10
Details in all cases: DQ2+ APC, 5 μM TG2-treated peptide, 3H thymidine incorporation
[1] = tested on: intestinal T cell line 491.1.3; test: T cell proliferation assay, polyclonal T cell line 491.1.3
Source text: (§1) T cell assays—The generation of polyclonal gluten-specific T cell lines derived from ex vivo gluten challenged small intestinal biopsy specimens of adult Celiac Sprue patients have been described elsewhere. For this study 14 different intestinal T cell lines derived from 13 DQ2+celiac patients were selected based on two basic criteria; effective recognition of TG2-treated digests of gluten and significant responses to at least two different gluten epitopes (Table 2). The generation of intestinal T cell clones and the epitope specificity of these clones, except TCC 387.3, has been described elsewhere (10). The TCC 387.3 recognizes a TG2-dependent epitope, defined as γ-VI that is contained within residues 62-72 (PQQPFPQQPQQ) of recombinant γ-5 gliadin. The freeze-dried, proteolyzed gluten samples were dissolved in PBS with 2 mM CaCl2 and treated with 150 μg/ml human recombinant TG2 (14) or, in some experiments 200 μg/ml guinea pig transglutaminase (Sigma T-5398), for 2 hours at 37° C. The TG2-treated samples were incubated overnight in triplicates on U-bottomed 96 well plates with 75 000 cells per well of DQ2 homozygous, irradiated (75 Gy) EBV-transformed B-lymphoblastoid cell lines in a volume of 100 μl 15% pooled, inactivated human serum and RPMI1640. After the incubation 50 μl of freshly thawed T cells (1×10^6 cells/ml) were added to each well. The proliferation in the wells was evaluated by ^3H thymidine incorporation from 48-72 hours after the addition of the T cells.

[2] = tested on: intestinal T cell line 488.3.1; test: T cell proliferation assay, polyclonal T cell line 488.3.1
Source text: as §1

[3] = tested on: intestinal T cell line 502.1.2; test: T cell proliferation assay, polyclonal T cell line 502.1.2
Source text: as §1

[4] = tested on: intestinal T cell line 446.1.3; test: T cell proliferation assay, polyclonal T cell line 446.1.3
Source text: as §1

[5] = tested on: intestinal T cell line 482.1.4; test: T cell proliferation assay, polyclonal T cell line 482.1.4
Source text: as §1

[6] = tested on: intestinal T cell line 461.1.4; test: T cell proliferation assay, polyclonal T cell line 461.1.4
Source text: as §1

[7] = tested on: intestinal T cell line 496.1.2; test: T cell proliferation assay, polyclonal T cell line 496.1.2
Source text: as §1

[8] = tested on: intestinal T cell line 432.2.1; test: T cell proliferation assay, polyclonal T cell line 432.2.1
Source text: as §1

[9] = tested on: intestinal T cell line 437.1.1; test: T cell proliferation assay, polyclonal T cell line 437.1.1
Source text: as §1

[10] = tested on: intestinal T cell line 437.1.3; test: T cell proliferation assay, polyclonal T cell line 437.1.3
Source text: as §1

[11] = tested on: intestinal T cell line 421.1.4; test: T cell proliferation assay, polyclonal T cell line 421.1.4
Source text: as §1

[12] = tested on: intestinal T cell line 451.1.1; test: T cell proliferation assay, polyclonal T cell line 451.1.1
Source text: as §1

[13] = tested on: intestinal T cell line 494.1.1; test: T cell proliferation assay, polyclonal T cell line 494.1.1
Source text: as §1

[14] = tested on: intestinal T cell line 422.4.2; test: T cell proliferation assay, polyclonal T cell line 422.4.2
Source text: as §1

| Substance | Response to TG2-treated gluten peptides (stimulatory index) [1] | Response to TG2-treated gluten peptides (stimulatory index) [2] | Response to TG2-treated gluten peptides (stimulatory index) [3] | Response to TG2-treated gluten peptides (stimulatory index) [4] | Response to TG2-treated gluten peptides (stimulatory index) [5] | Response to TG2-treated gluten peptides (stimulatory index) [6] | Response to TG2-treated gluten peptides (stimulatory index) [7] | Response to TG2-treated gluten peptides (stimulatory index) [8] | Response to TG2-treated gluten peptides (stimulatory index) [9] | Response to TG2-treated gluten peptides (stimulatory index) [10] | Response to TG2-treated gluten peptides (stimulatory index) [11] | Response to TG2-treated gluten peptides (stimulatory index) [12] | Response to TG2-treated gluten peptides (stimulatory index) [13] | Response to TG2-treated gluten peptides (stimulatory index) [14] |
| --- | --- | --- | --- | --- | --- | --- | --- | --- | --- | --- | --- | --- | --- | --- |
| QQxSQPQxPQQQQxPQQPQQF [Glu-5] | + (Stimulatory index (SI; T + APC + TG2-treated peptide divided by T + APC) of 3-10) | − | − | + (Stimulatory index (SI; T + APC + TG2-treated peptide divided by T + APC) of 3-10) | − | − | − | − | − | − | − | − | − | − |
| PQPQLPYPQPQLPY [α-II] | ++ (SI above 10) | ++ (SI above 10) | + (Stimulatory index (SI; T + APC + TG2-treated peptide divided by T + APC) of 3-10) | ++ (SI above 10) | + (Stimulatory index (SI; T + APC + TG2-treated peptide divided by T + APC) of 3-10) | + (Stimulatory index (SI; T + APC + TG2-treated peptide divided by T + APC) of 3-10) | + (Stimulatory index (SI; T + APC + TG2-treated peptide divided by T + APC) of 3-10) | ++ (SI above 10) | + (Stimulatory index (SI; T + APC + TG2-treated peptide divided by T + APC) of 3-10) | + (Stimulatory index (SI; T + APC + TG2-treated peptide divided by T + APC) of 3-10) | + (Stimulatory index (SI; T + APC + TG2-treated peptide divided by T + APC) of 3-10) | + (Stimulatory index (SI; T + APC + TG2-treated peptide divided by T + APC) of 3-10) | ++ (SI above 10) | ++ (SI above 10) |
| QPQQPQQSFPQQQRP [γ-I] | + (Stimulatory index (SI; T + APC + TG2-treated peptide divided by T + APC) of 3-10) | − | − | − | − | − | − | + (Stimulatory index (SI; T + APC + TG2-treated peptide divided by T + APC) of 3-10) | − | + (Stimulatory index (SI; T + APC + TG2-treated peptide divided by T + APC) of 3-10) | − | − | − | − |
| LQLQPFPQPQLPYPQPQLPYPQPQLPYPQPQPF [αG-33] | ++ (SI above 10) | ++ (SI above 10) | ++ (SI above 10) | ++ (SI above 10) | ++ (SI above 10) | + (Stimulatory index (SI; T + APC + TG2-treated peptide divided by T + APC) of 3-10) | ++ (SI above 10) | ++ (SI above 10) | ++ (SI above 10) | ++ (SI above 10) | ++ (SI above 10) | ++ (SI above 10) | ++ (SI above 10) | ++ (SI above 10) |
| LQPQQPFPQQPQQPYPQQPQ [γ-III and γ-VI] | − | + (Stimulatory index (SI; T + APC + TG2-treated peptide divided by T + APC) of 3-10) | + (Stimulatory index (SI; T + APC + TG2-treated peptide divided by T + APC) of 3-10) | − | − | + (Stimulatory index (SI; T + APC + TG2-treated peptide divided by T + APC) of 3-10) | + (Stimulatory index (SI; T + APC + TG2-treated peptide divided by T + APC) of 3-10) | − | − | − | + (Stimulatory index (SI; T + APC + TG2-treated peptide divided by T + APC) of 3-10) | − | ++ (SI above 10) | − |
| GIIQPQQPAQL [γ-II] | − | − | − | ++ (SI above 10) | − | − | ++ (SI above 10) | − | − | − | + (Stimulatory index (SI; T + APC + TG2-treated peptide divided by T + APC) of 3-10) | ++ (SI above 10) | − | − |
